# Key:
# [1] = tested on: rat; conditions: Developmental neurotoxicity study; sprague dawley; Inhalation; Whole-Body; dose end: 21 PND; group: cannot be grouped; developmental / developmental malformation / general / [other] + systemic / in life observation / body weight / offspring (pup) weight + …
# [2] = tested on: rat; conditions: Developmental neurotoxicity study; wistar; Inhalation; Whole-Body; dose end: 119 PND; group: cannot be grouped; systemic / in life observation / body weight / offspring (pup) weight
# [3] = tested on: rat; conditions: Developmental neurotoxicity study; wistar; Inhalation; Whole-Body; dose end: 98 PND; group: cannot be grouped; systemic / in life observation / body weight / offspring (pup) weight
# [4] = tested on: mouse; conditions: Developmental neurotoxicity study; cd1; Inhalation; Whole-Body; dose end: 20 PND; group: cannot be grouped; systemic / in life observation / body weight / offspring (pup) weight gain + systemic / in life observation / clinical signs / grip strength
# [5] = tested on: rat; conditions: Developmental neurotoxicity study, wistar, Inhalation, Whole-Body, dose end: 81 PND, group: cannot be grouped
# [6] = tested on: rat; conditions: Developmental neurotoxicity study, sprague dawley, Inhalation, Whole-Body, dose end: 63 PND, group: cannot be grouped
# [7] = tested on: rat; conditions: Subchronic oral toxicity in rodents, fischer, Feed, dose end: 14 week, group: systemic
# [8] = tested on: mouse; conditions: Subchronic oral toxicity in rodents, b6c3f1, Feed, dose end: 14 week, group: systemic
# [9] = tested on: mouse; conditions: Carcinogenicity; b6c3f1; Oral; Gavage/Intubation; dose end: 90 week; group: systemic; systemic / pathology microscopic / liver / carcinoma + systemic / in life observation / clinical signs / alopecia + systemic / in life …
# [10] = tested on: rat; conditions: Carcinogenicity; other; Oral; Gavage/Intubation; dose end: 113 week; group: systemic; systemic / in life observation / body weight / body weight gain + systemic / in life observation / clinical signs / nasal discharge + …
# [11] = tested on: rat; conditions: Combined chronic toxicity/carcinogenicity, wistar, Oral, Feed, dose end: 103 week, group: systemic
# [12] = tested on: dog; conditions: Chronic toxicity, beagle, Oral, Capsule, dose end: 52 week, group: systemic
# [13] = tested on: rabbit; conditions: Prenatal developmental toxicity study, new zealand white, Oral, Gavage/Intubation, dose end: 18 GD
# [14] = tested on: rat; conditions: Multigenerational reproductive toxicity study, sprague dawley, Oral, Feed, dose end: 3 generation
# [15] = tested on: rat; conditions: Prenatal developmental toxicity study, other, Oral, Gavage/Intubation, dose end: 15 GD
# [16] = tested on: mouse; conditions: Carcinogenicity, cd1, Oral, Diet, dose end: 85 week, group: systemic
# [17] = tested on: mouse; conditions: Combined chronic toxicity/carcinogenicity, cd1, Oral, Diet, dose end: 104 week, group: systemic
# [18] = tested on: rat; conditions: Multigenerational reproductive toxicity study, other, Oral, Feed, dose end: 2 generation
# [19] = tested on: dog; conditions: Sub-acute repeat dose toxicity; beagle; Injection; Intravenous; dose end: 1 month; group: systemic; systemic / hematology / erythrocyte (rbc) count differential / erythrocyte (rbc) + systemic / hematology / hematocrit (hct) / hematocrit (…
# [20] = tested on: rat; conditions: Chronic toxicity; other; Oral; Feed; dose end: 26 week; group: systemic; systemic / in life observation / body weight / body weight gain + systemic / in life observation / food consumption / food consumption + …
# [21] = tested on: dog; conditions: Chronic toxicity; beagle; Oral; Capsule; dose end: 33 week; group: systemic; systemic / hematology / hematocrit (hct) / hematocrit (hct) + systemic / hematology / hemoglobin (hgb) / hemoglobin (hgb) + systemic / organ…
# [22] = systemic / in life observation / body weight / body weight + systemic / in life observation / body weight / body weight gain + developmental…
# [23] = systemic / in life observation / body weight / body weight gain + systemic / in life observation / clinical signs / motor activity
# [24] = systemic / in life observation / body weight / body weight gain + systemic / in life observation / clinical signs / motor activity + …
# [25] = systemic / pathology microscopic / liver / vacuolization cytoplasmic + systemic / organ weight / liver / nos + systemic / pathology gross…
# [26] = systemic / organ weight / liver / absolute + systemic / organ weight / liver / relative to body weight + systemic / pathology gross / liver…
# [27] = systemic / organ weight / liver / absolute + systemic / organ weight / liver / relative to body weight + systemic / pathology microscopic / …
# [28] = systemic / organ weight / spleen / nos + systemic / organ weight / spleen / relative to body weight
# [29] = systemic / in life observation / body weight / body weight gain + systemic / in life observation / food consumption / food consumption + …
# [30] = group: developmental, developmental / developmental malformation / bone / fused + developmental / developmental malformation / bone / supernumerary
# [31] = group: maternal, reproductive / reproductive performance / resorptions / resorptions
# [32] = group: offspring, systemic / in life observation / body weight / offspring (pup) weight
# [33] = group: parental, systemic / in life observation / body weight / body weight
# [34] = group: reproductive, reproductive / offspring survival early / birth index / live birth index
# [35] = group: developmental, developmental / developmental malformation / bone / [other] + developmental / developmental malformation / bone / delayed ossification + …
# [36] = group: maternal, systemic / in life observation / body weight / body weight + systemic / in life observation / body weight / body weight gain + systemic / in…
# [37] = systemic / in life observation / mortality / mortality + systemic / pathology microscopic / adrenal gland / amyloid deposition + systemic / …
# [38] = group: offspring, developmental / offspring survival late / viability index / viability index + systemic / in life observation / body weight / offspring (pup…
# [39] = group: offspring, systemic / in life observation / body weight / offspring (pup) weight + systemic / in life observation / body weight / offspring (pup) …
# [40] = group: parental, systemic / in life observation / body weight / body weight gain
# [41] = group: parental, systemic / in life observation / body weight / body weight gain + systemic / in life observation / body weight / body weight + systemic / in…
# [42] = group: reproductive, reproductive / reproductive performance / mating / mating
smiles,measurement,setting,value
Cc1ccccc1 [Toluene],LEL,[1],12000 ppm
same,LOAEL,[1],> 12000 ppm
same,NEL,[1],8000 ppm
same,NOAEL,[1],≥ 12000 ppm
same,LEL,[2],1200 ppm
same,LOAEL,[2],> 1200 ppm
same,NEL,[2],< 1200 ppm
same,NOAEL,[2],≥ 1200 ppm
same,LEL,[3],1800 ppm
same,LOAEL,[3],> 1800 ppm
same,NEL,[3],< 1800 ppm
same,NOAEL,[3],≥ 1800 ppm
same,LEL,[4],2000 ppm
same,LOAEL,[4],> 2000 ppm
same,NEL,[4],400 ppm
same,NOAEL,[4],≥ 2000 ppm
same,NEL,[5]; systemic / in life observation / body weight / body weight + systemic / in life observation / body weight / body weight gain,600 ppm
same,LEL,[5]; [22],1000 ppm
same,LOAEL,[5]; [22],> 1200 ppm
same,NOAEL,[5]; [22],≥ 1200 ppm
same,LEL,[6]; [23],8000 ppm
same,NEL,[6]; [23],< 8000 ppm
same,LOAEL,[6]; [24],> 12000 ppm
same,NOAEL,[6]; [24],≥ 12000 ppm
"ClC(Cl)C(Cl)Cl [1,1,2,2-Tetrachloroethane]",LOAEL,[7]; systemic / in life observation / body weight / body weight gain + systemic / pathology microscopic / liver / vacuolization cytoplasmic,40 mg/kg/day
same,NOAEL,[7]; systemic / in life observation / body weight / body weight gain + systemic / pathology microscopic / liver / vacuolization cytoplasmic + …,20 mg/kg/day
same,LEL,[7]; [25],20 mg/kg/day
same,NEL,[7]; [25],< 20 mg/kg/day
same,LEL,[8]; [26],80 mg/kg/day
same,NEL,[8]; [26],< 80 mg/kg/day
same,LOAEL,[8]; [27],160 mg/kg/day
same,NOAEL,[8]; [27],80 mg/kg/day
same,LEL,[9],142 mg/kg/day
same,LOAEL,[9],> 284 mg/kg/day
same,NEL,[9],< 142 mg/kg/day
same,NOAEL,[9],≥ 284 mg/kg/day
same,LEL,[10],43 mg/kg/day
same,LOAEL,[10],> 76 mg/kg/day
same,NEL,[10],< 43 mg/kg/day
same,NOAEL,[10],≥ 76 mg/kg/day
CC(C)=CC1C(C(=O)OCc2coc(Cc3ccccc3)c2)C1(C)C (stereo not drawn) [Resmethrin],LOAEL,[11]; systemic / organ weight / liver / absolute + systemic / in life observation / body weight / body weight + systemic / in life observation / …,233 mg/kg/day
same,NOAEL,[11]; systemic / organ weight / liver / absolute + systemic / organ weight / liver / relative to body weight + systemic / organ weight / spleen / …,47 mg/kg/day
same,LEL,[11]; [28],47 mg/kg/day
same,NEL,[11]; [28],< 47 mg/kg/day
same,NEL,[12]; [29],108 mg/kg/day
same,NOAEL,[12]; [29],108 mg/kg/day
same,LOAEL,"[12]; systemic / in life observation / body weight / body weight gain + systemic / pathology microscopic / eye / cataract, subcapsular",430 mg/kg/day
same,LEL,"[12]; systemic / in life observation / body weight / body weight gain + systemic / pathology microscopic / eye / cataract, subcapsular + systemic…",430 mg/kg/day
same,LEL,[13]; [30],100 mg/kg/day
same,LOAEL,[13]; [30],100 mg/kg/day
same,NEL,[13]; [30],30 mg/kg/day
same,NOAEL,[13]; [30],30 mg/kg/day
same,LEL,[13]; [31],100 mg/kg/day
same,LOAEL,[13]; [31],100 mg/kg/day
same,NEL,[13]; [31],30 mg/kg/day
same,NOAEL,[13]; [31],30 mg/kg/day
same,LEL,[14]; [32],25 mg/kg/day
same,LOAEL,[14]; [32],25 mg/kg/day
same,NEL,[14]; [32],< 25 mg/kg/day
same,NOAEL,[14]; [32],< 25 mg/kg/day
same,LEL,[14]; [33],40 mg/kg/day
same,LOAEL,[14]; [33],40 mg/kg/day
same,NEL,[14]; [33],25 mg/kg/day
same,NOAEL,[14]; [33],25 mg/kg/day
same,LEL,[14]; [34],40 mg/kg/day
same,LOAEL,[14]; [34],> 62.5 mg/kg/day
same,NEL,[14]; [34],25 mg/kg/day
same,NOAEL,[14]; [34],≥ 62.5 mg/kg/day
same,LEL,[15]; [35],80 mg/kg/day
same,LOAEL,[15]; [35],80 mg/kg/day
same,NEL,[15]; [35],40 mg/kg/day
same,NOAEL,[15]; [35],40 mg/kg/day
same,LEL,[15]; [36],80 mg/kg/day
same,LOAEL,[15]; [36],80 mg/kg/day
same,NEL,[15]; [36],40 mg/kg/day
same,NOAEL,[15]; [36],40 mg/kg/day
same,LOAEL,[16]; [37],138 mg/kg/day
same,NEL,[16]; [37],36.3 mg/kg/day
same,NOAEL,[16]; [37],71.3 mg/kg/day
same,LEL,[16]; systemic / organ weight / adrenal gland / absolute + systemic / organ weight / adrenal gland / relative to body weight + systemic / organ …,71.3 mg/kg/day
same,LOAEL,[17]; systemic / in life observation / mortality / mortality,84.3 mg/kg/day
same,NOAEL,[17]; systemic / in life observation / mortality / mortality + systemic / pathology microscopic / liver / adenoma/carcinoma combined + systemic / …,43.4 mg/kg/day
same,LEL,[17]; [27],43.4 mg/kg/day
same,NEL,[17]; [27],< 43.4 mg/kg/day
same,LOAEL,[18]; [38],70.8 mg/kg/day
same,NOAEL,[18]; [38],34.8 mg/kg/day
same,LEL,[18]; [39],34.8 mg/kg/day
same,NEL,[18]; [39],17.4 mg/kg/day
same,NEL,[18]; [40],34.8 mg/kg/day
same,NOAEL,[18]; [40],34.8 mg/kg/day
same,LEL,[18]; [41],70.8 mg/kg/day
same,LOAEL,[18]; [41],70.8 mg/kg/day
same,LEL,[18]; [42],70.8 mg/kg/day
same,LOAEL,[18]; [42],70.8 mg/kg/day
same,NEL,[18]; [42],34.8 mg/kg/day
same,NOAEL,[18]; [42],34.8 mg/kg/day
CN(C)[C@@H]1C(=O)C(C(N)=O)=C(O)[C@@]2(O)C(=O)C3=C(O)c4c(O)cccc4[C@@](C)(O)[C@H]3C[C@@H]12 [Tetracycline],LEL,[19],40 mg/kg/day
same,LOAEL,[19],> 40 mg/kg/day
same,NEL,[19],< 40 mg/kg/day
same,NOAEL,[19],≥ 40 mg/kg/day
same,LEL,[20],125 mg/kg/day
same,LOAEL,[20],> 500 mg/kg/day
same,NEL,[20],< 125 mg/kg/day
same,NOAEL,[20],≥ 500 mg/kg/day
same,LEL,[21],500 mg/kg/day
same,LOAEL,[21],> 500 mg/kg/day
same,NEL,[21],250 mg/kg/day
same,NOAEL,[21],≥ 500 mg/kg/day

# — EPA's ToxRefDB 2
